Assays:
human GIPR = biological target: T1, human GIPR (Homo sapiens, UniProt P48546); experiment: GIPR Gαs [35S]GTPγS binding, GIPR-expressing membranes; type: biochemical
T1 construct: expressed in transfected cells; host or cells: HEK293
T1 sequence (P48546 22-466): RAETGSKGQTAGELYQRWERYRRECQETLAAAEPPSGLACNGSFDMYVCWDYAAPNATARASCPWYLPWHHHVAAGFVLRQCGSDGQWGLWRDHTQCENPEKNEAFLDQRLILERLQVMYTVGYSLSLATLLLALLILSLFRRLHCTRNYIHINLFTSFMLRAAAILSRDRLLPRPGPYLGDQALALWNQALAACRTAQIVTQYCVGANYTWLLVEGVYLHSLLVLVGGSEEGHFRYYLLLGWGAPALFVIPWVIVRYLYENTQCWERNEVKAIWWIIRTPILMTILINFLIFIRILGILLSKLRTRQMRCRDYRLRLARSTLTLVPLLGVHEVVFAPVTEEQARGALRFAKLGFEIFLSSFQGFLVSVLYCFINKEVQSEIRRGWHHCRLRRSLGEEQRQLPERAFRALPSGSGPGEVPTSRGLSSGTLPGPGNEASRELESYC
Method: (§1) Fig. 4. […] (B) Ligand-induced GTPγS binding of Gαs was performed using the GIPR-expressing membranes. […] (C) Agonist-stimulated cAMP production was measured in human GIPR expressing HEK293 cells. […] (E) Ligand-induced GTPγS binding of Gαs was performed using the GLP-1R-expressing membranes. […] (F) Agonist-stimulated cAMP production was measured in human GLP-1R-expressing HEK293 cells. […] Data presented are representative of n ≥ 3 independent experiments. Summarized data are shown in SI Appendix, Table 2. log M; log Molar.
(§2) We note that the albumin-binding propensity of fatty acid-modified peptides can confound a pharmacological comparison of molecules, given the common use of albumin and serum as nonspecific blocking agents in biological assays. Therefore, to obviate this, entirely albumin-free assays supplemented with bovine casein or bacitracin were used to prevent nonspecific binding ([10]).
Functional potency (EC50)
and efficacy (% Top) of ligands to induce Gα s -GTPγS binding and cAMP accumulation in HEK293 cells expressing GIPR were determined. The equilibrium affinity (KD) of
ligands for the immobilized ectodomain of the GIPR were quantified by surface plasmon resonance. […]
SPR data were analyzed using T200 evaluation software (Cytiva). All data are presented as geometric means with SEM and n values
(§3) according to established practices. ND, not determined. NA, not applicable.

GLP-1R [1] = biological target: T2, GLP-1R (Homo sapiens, UniProt P43220); experiment: GRK2 recruitment to the GLP-1R, NanoBRET; type: cell-based; parameters: expressed in transfected cells; host or cells: freestyle HEK cells
Method: After 48 h, transfected cells were incubated in phosphate-buffered saline (PBS) containing 0.1% (wt/vol) bovine casein and varying concentrations of the ligands. […]
The potency (EC50) and efficacy (% Top) for ligands to induce GLP-1R Internalization were
determined using diffusion-enhanced resonance energy transfer.
relative efficacy for NanoBRET assays. SPR data were analyzed using T200 evaluation software (Cytiva). All data are presented as geometric means with SEM and n values
as §3
Target sequence in this assay (P43220 24-463): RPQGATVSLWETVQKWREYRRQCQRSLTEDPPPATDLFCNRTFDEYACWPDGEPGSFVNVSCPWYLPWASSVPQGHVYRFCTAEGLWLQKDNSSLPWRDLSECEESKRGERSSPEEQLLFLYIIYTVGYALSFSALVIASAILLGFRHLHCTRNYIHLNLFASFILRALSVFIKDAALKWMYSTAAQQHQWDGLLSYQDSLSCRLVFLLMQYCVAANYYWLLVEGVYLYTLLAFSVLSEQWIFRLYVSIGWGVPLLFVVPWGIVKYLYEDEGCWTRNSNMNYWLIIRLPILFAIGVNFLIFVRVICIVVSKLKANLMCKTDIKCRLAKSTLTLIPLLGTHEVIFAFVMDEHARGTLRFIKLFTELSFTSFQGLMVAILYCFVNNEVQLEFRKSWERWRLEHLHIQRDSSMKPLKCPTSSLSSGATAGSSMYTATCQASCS
Target sequence in this assay (P25098 whole entry partner): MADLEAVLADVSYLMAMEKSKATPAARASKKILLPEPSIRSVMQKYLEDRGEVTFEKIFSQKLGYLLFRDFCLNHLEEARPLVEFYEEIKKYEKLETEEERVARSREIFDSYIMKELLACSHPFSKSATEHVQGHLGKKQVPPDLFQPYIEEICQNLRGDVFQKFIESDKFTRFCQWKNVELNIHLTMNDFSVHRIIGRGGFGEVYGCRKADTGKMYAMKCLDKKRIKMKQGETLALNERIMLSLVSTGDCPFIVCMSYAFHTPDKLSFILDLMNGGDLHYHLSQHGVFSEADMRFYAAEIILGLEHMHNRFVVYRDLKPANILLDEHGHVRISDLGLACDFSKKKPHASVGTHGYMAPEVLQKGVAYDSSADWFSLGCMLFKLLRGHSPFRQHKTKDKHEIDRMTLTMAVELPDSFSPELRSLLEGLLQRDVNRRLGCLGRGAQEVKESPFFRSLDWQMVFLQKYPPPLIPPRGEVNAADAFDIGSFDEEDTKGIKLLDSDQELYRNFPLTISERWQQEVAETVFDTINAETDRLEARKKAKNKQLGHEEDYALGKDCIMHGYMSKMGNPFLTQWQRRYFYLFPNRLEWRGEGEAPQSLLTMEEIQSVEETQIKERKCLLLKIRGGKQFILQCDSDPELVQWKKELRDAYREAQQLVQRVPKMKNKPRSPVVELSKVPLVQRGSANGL

GLP-1R [2] = biological target: T2, GLP-1R; experiment: GLP-1R Gαs [35S]GTPγS binding, GLP-1R-expressing membranes; type: biochemical; parameters: expressed in transfected cells; host or cells: HEK293
Method: as §1
as §2, with “([10]). […]” for “([10]).”
Target sequence in this assay (P43220 24-463): as the sequence (P43220 24-463) above
Middle Panel: The affinity (Ki) of ligands for the GLP-1R was […]
(§4) Functional potency (EC50) and efficacy (% Top) of ligands to induce Gα s-GTPγS binding and cAMP accumulation in HEK293 cells expressing GLP-1R were determined. The equilibrium affinity (KD) of ligands for the immobilized ectodomain of the GLP-1R were quantified by surface plasmon resonance. […]
SPR data were analyzed using T200 evaluation software (Cytiva). All data are presented as geometric means with SEM and n values according to established practices. ND, not determined. NA, not applicable.

[3] = biological target: T3, ECD of human GLP-1R (amino acids 24 to 145) (Homo sapiens, UniProt P43220); experiment: GLP-1R extracellular domain binding by surface plasmon resonance
T3 construct: GLP-1R (amino acids 24 to 145); 6His; made in house; host or cells: CHO cells
T3 sequence (P43220 24-145): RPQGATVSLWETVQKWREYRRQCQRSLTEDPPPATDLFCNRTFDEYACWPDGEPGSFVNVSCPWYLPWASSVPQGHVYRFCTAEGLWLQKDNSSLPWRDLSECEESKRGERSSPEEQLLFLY
From the text: DNA encoding each protein was transfected into CHO cells for expression. After expression, the proteins were purified by affinity chromatography (HIS-Trap Ni, Cytiva) followed by size exclusion chromatography using a HiLoad 26/600 Superdex 75pg column (Cytiva) with PBS buffer. […] Surface plasmon resonance measurements were made using a Biacore T200 (Cytiva) and analyzed using T200 Evaluation Software Version 3.1. Receptor ectodomain proteins were covalently immobilized (∼250 resonance units) on Sensor Chip CM4 BR100534 using the Amine coupling Immobilization Wizard in the Biacore T200 Control Software Version 2.0.2. Running buffer was HBS-EP (10 mM Hepes, 150 mM NaCl, 3 mM EDTA, 0.05% P20 [pH 7.6]; Teknova). Concentration series for each sample were made by serial dilution in running buffer. The samples were injected for 150 sec at a 30-µL/min flow rate, followed by 300 sec of dissociation. The surface was regenerated between samples with 10 mM glycine (pH 1.7).
Fig. S10. Receptor extracellular domain (ECD) binding affinity of peptides. Purified GIPR (left column) and GLP-1R (right column) extracellular domains were immobilized to biosensor […]
mM). […]
and efficacy (% Top) of ligands to induce Gα s -GTPγS binding and cAMP accumulation in HEK293 cells expressing GIPR were determined. The equilibrium affinity (KD) of ligands for the immobilized ectodomain of the GIPR were quantified by surface plasmon resonance. […]
as §4
recruitment to the GLP-1R were determined using the NanoBRET approach. The potency (EC50) and efficacy (% Top) for ligands to induce GLP-1R Internalization were determined using diffusion-enhanced resonance energy transfer. […]
relative efficacy for NanoBRET assays. SPR data were analyzed using T200 evaluation software (Cytiva). […] ND, not determined. […]

With `CC[C@H](C)[C@H](NC(=O)[C@H](CC(C)C)NC(=O)[C@H](Cc1c[nH]c2ccccc12)NC(=O)[C@H](CCC(N)=O)NC(=O)[C@@H](NC(=O)[C@H](Cc1ccccc1)NC(=O)[C@H](C)NC(=O)[C@H](CCCCN)NC(=O)[C@H](CCC(N)=O)NC(=O)[C@H](C)NC(=O)[C@@H](NC(=O)[C@H](CCCCN)NC(=O)[C@H](CC(=O)O)NC(=O)[C@H](CC(C)C)NC(=O)C(C)(C)NC(=O)[C@@H](NC(=O)[C@H](CO)NC(=O)[C@H](Cc1ccc(O)cc1)NC(=O)[C@H](CC(=O)O)NC(=O)[C@H](CO)NC(=O)[C@@H](NC(=O)[C@H](Cc1ccccc1)NC(=O)[C@@H](NC(=O)CNC(=O)[C@H](CCC(=O)O)NC(=O)C(C)(C)NC(=O)[C@@H](N)Cc1ccc(O)cc1)[C@@H](C)O)[C@@H](C)O)[C@@H](C)CC)[C@@H](C)CC)C(C)C)C(=O)N[C@@H](C)C(=O)NCC(=O)NCC(=O)N1CCC[C@H]1C(=O)N[C@@H](CO)C(=O)N[C@@H](CO)C(=O)NCC(=O)N[C@@H](C)C(=O)N1CCC[C@H]1C(=O)N1CCC[C@H]1C(=O)N1CCC[C@H]1C(=O)N[C@@H](CO)C(N)=O` [Tzp∆C20] the EC50 (human GIPR; Gαs-GTPγS binding, GIPR-expressing membranes, albumin-free, geometric mean (SEM, n), read-out: GIPR GTPγS Recruitment EC50) was 0.0733 nM, the “GIPR GTPγS Recruitment Top” value (human GIPR; efficacy (% Top), normalized to GIP(1-42), (SEM)) was 91.0 (3.5) % and the EC50 (GLP-1R [1]; NanoBRET, transfected freestyle HEK cells, PBS with 0.1% casein, geometric mean (SEM, n)) was 1.92 nM. The “GLP-1R GRK2 Recruitment Top” value (GLP-1R [1]; efficacy (% Top), relative to maximal GLP-1, (SEM)) was 39.4 (3.7) %, the EC50 (GLP-1R [2]; Gαs-GTPγS binding, GLP-1R-expressing membranes, albumin-free, geometric mean (SEM, n), read-out: GLP-1R GTPγS Recruitment EC50) was 0.626 nM and the “GLP-1R GTPγS Recruitment Top” value (GLP-1R [2]; efficacy (% Top), normalized to GLP-1(7-36), (SEM)) was 74.8 (9.1) %. It also gave a Kd ([3]; GLP-1R SPR KD, equilibrium affinity, immobilized GLP-1R ectodomain, Biacore T200, HBS-EP pH 7.6, (SEM, n)) of 111 nM and a koff ([3]; read-out: GLP-1R ECD kinetic constant Koff) of 0.0254 s⁻¹.

From paper PMC9060465 (Proceedings of the National Academy of Sciences of the …, 2022)
